Data: the NIST ThermoML archive (doi:10.1016/j.fluid.2008.03.004)

Test: xn = mol fraction of the nth substance listed
Conditions: 101 kPa, Liquid; for speed of sound: Sing-around technique in a fixed-path interferometer

CCOC(C)(C)C [2-ethoxy-2-methylpropane] + Cc1ccc(C)cc1
Conditions | mass density [kg/m3] | speed of sound [m/s]
305.65 K, x1 = 0.062 | 842.155 | –
305.65 K, x1 = 0.123 | 834.557 | –
305.65 K, x1 = 0.238 | 820.611 | –
305.65 K, x1 = 0.35 | 806.841 | –
305.65 K, x1 = 0.455 | 793.966 | –
305.65 K, x1 = 0.557 | 781.512 | –
305.65 K, x1 = 0.654 | 769.583 | –
305.65 K, x1 = 0.746 | 758.333 | –
305.65 K, x1 = 0.834 | 747.515 | –
305.65 K, x1 = 0.902 | 739.137 | –
305.65 K, x1 = 0.959 | 732.166 | –
305.65 K, x1 = 1 | 727.038 | –
308.15 K, x1 = 0.062 | 839.962 | 1248.7
308.15 K, x1 = 0.123 | 832.343 | 1231.1
308.15 K, x1 = 0.238 | 818.339 | 1198.4
308.15 K, x1 = 0.35 | 804.54 | 1166.7
308.15 K, x1 = 0.455 | 791.627 | 1137.1
308.15 K, x1 = 0.557 | 779.104 | 1108.3
308.15 K, x1 = 0.654 | 767.142 | 1081.2
308.15 K, x1 = 0.746 | 755.854 | 1055.7
308.15 K, x1 = 0.834 | 745.002 | 1031.6
308.15 K, x1 = 0.902 | 736.575 | 1012.8
308.15 K, x1 = 0.959 | 729.598 | 997.44
308.15 K, x1 = 1 | 724.443 | 986.39
310.65 K, x1 = 0.062 | 837.759 | 1238.5
310.65 K, x1 = 0.123 | 830.128 | 1220.9
310.65 K, x1 = 0.238 | 816.051 | 1188
310.65 K, x1 = 0.35 | 802.206 | 1156.1
310.65 K, x1 = 0.455 | 789.243 | 1126.3
310.65 K, x1 = 0.557 | 776.705 | 1097.6
310.65 K, x1 = 0.654 | 764.679 | 1070.4
310.65 K, x1 = 0.746 | 753.335 | 1044.9
310.65 K, x1 = 0.834 | 742.455 | 1020.6
310.65 K, x1 = 0.902 | 733.99 | 1001.8
310.65 K, x1 = 0.959 | 726.994 | 986.36
310.65 K, x1 = 1 | 721.826 | 975.42
313.15 K, x1 = 0.062 | 835.532 | 1228.3
313.15 K, x1 = 0.123 | 827.882 | 1210.7
313.15 K, x1 = 0.238 | 813.765 | 1177.8
313.15 K, x1 = 0.35 | 799.872 | 1145.7
313.15 K, x1 = 0.455 | 786.866 | 1115.8
313.15 K, x1 = 0.557 | 774.27 | 1087
313.15 K, x1 = 0.654 | 762.204 | 1059.7
313.15 K, x1 = 0.746 | 750.812 | 1034.1
313.15 K, x1 = 0.834 | 739.901 | 1009.8
313.15 K, x1 = 0.902 | 731.4 | 990.86
313.15 K, x1 = 0.959 | 724.383 | 975.56
313.15 K, x1 = 1 | 719.179 | 964.53
315.65 K, x1 = 0.062 | 833.306 | 1218.3
315.65 K, x1 = 0.123 | 825.641 | 1200.6
315.65 K, x1 = 0.238 | 811.445 | 1167.5
315.65 K, x1 = 0.35 | 797.52 | 1135.4
315.65 K, x1 = 0.455 | 784.471 | 1105.4
315.65 K, x1 = 0.557 | 771.824 | 1076.4
315.65 K, x1 = 0.654 | 759.71 | 1049.1
315.65 K, x1 = 0.746 | 748.28 | 1023.4
315.65 K, x1 = 0.834 | 737.319 | 998.93
315.65 K, x1 = 0.902 | 728.791 | 980.02
315.65 K, x1 = 0.959 | 721.749 | 964.74
315.65 K, x1 = 1 | 716.527 | 953.54
318.15 K, x1 = 0.062 | 831.175 | 1208.1
318.15 K, x1 = 0.123 | 823.476 | 1190.2
318.15 K, x1 = 0.238 | 809.233 | 1157
318.15 K, x1 = 0.35 | 795.26 | 1124.9
318.15 K, x1 = 0.455 | 782.164 | 1094.8
318.15 K, x1 = 0.557 | 769.47 | 1065.8
318.15 K, x1 = 0.654 | 757.309 | 1038.5
318.15 K, x1 = 0.746 | 745.827 | 1012.6
318.15 K, x1 = 0.834 | 734.831 | 988.25
318.15 K, x1 = 0.902 | 726.264 | 969.29
318.15 K, x1 = 0.959 | 719.189 | 953.77
318.15 K, x1 = 1 | 713.96 | 942.67
320.65 K, x1 = 0.062 | 828.907 | 1197.9
320.65 K, x1 = 0.123 | 821.186 | 1180
320.65 K, x1 = 0.238 | 806.89 | 1146.7
320.65 K, x1 = 0.35 | 792.863 | 1114.4
320.65 K, x1 = 0.455 | 779.723 | 1084.3
320.65 K, x1 = 0.557 | 766.974 | 1055.2
320.65 K, x1 = 0.654 | 754.765 | 1027.7
320.65 K, x1 = 0.746 | 743.239 | 1001.8
320.65 K, x1 = 0.834 | 732.197 | 977.45
320.65 K, x1 = 0.902 | 723.589 | 958.35
320.65 K, x1 = 0.959 | 716.494 | 942.81
320.65 K, x1 = 1 | 711.25 | 931.73
323.15 K, x1 = 0.062 | 826.773 | 1187.7
323.15 K, x1 = 0.123 | 819.029 | 1169.7
323.15 K, x1 = 0.238 | 804.681 | 1136.3
323.15 K, x1 = 0.35 | 790.599 | 1103.9
323.15 K, x1 = 0.455 | 777.399 | 1073.7
323.15 K, x1 = 0.557 | 764.613 | 1044.6
323.15 K, x1 = 0.654 | 752.347 | 1017.1
323.15 K, x1 = 0.746 | 740.77 | 991.05
323.15 K, x1 = 0.834 | 729.685 | 966.6
323.15 K, x1 = 0.902 | 721.039 | 947.53
323.15 K, x1 = 0.959 | 713.92 | 931.92
323.15 K, x1 = 1 | 708.642 | 920.73
